In general, IC50 refers to the concentration that gives 50% inhibition. One may read the GI50 as the concentration giving 50% growth inhibition.

Results on 17 compounds are retold here after ChEMBL document CHEMBL5236548, “Marine Natural Products: A Potential Source of Anti-hepatocellular Carcinoma Drugs” (J Med Chem, 2021).

The test system of test [1] is HepG2. The test is described as follows: Cytotoxicity against human HepG2 cells measured after 3 days by MTT assay. It is filed as functional, cell-based. The settings on record: HepG2, 72 h. (In general: Formazan colour is commonly taken as a measure of viable cells.)
Test [2] has as its system Hep 3B2. As to the kind of experiment: Cytotoxicity against human Hep3B cells by MTT assay. It is filed as functional, cell-based.
The test system of test [3] is HepG2. The test is described as follows: Cytotoxicity against human HepG2 cells by MTT assay. Type of test: functional, cell-based.
A further test has as its system HA22T cell line. The test is described as follows: Cytotoxicity against human HA22T cells by MTT assay. It is filed as functional, cell-based.
Test [4] concerns HepG2. As to the kind of experiment: Cytotoxicity against human HepG2 cells incubated for 48 hrs by MTT assay. It is filed as functional, cell-based. As to conditions: HepG2, 48 h.
Test [5] in a line: Antiproliferative activity against human HCC cells by MTT assay. Type of test: functional, cell-based.
Test [6] has as its system Huh-7. The test is described as follows: Antiproliferative activity against human Huh-7 cells by MTT assay. It is filed as functional, cell-based.
A further test has as its system SNU-387. The test is described as follows: Antiproliferative activity against human SNU-387 cells by MTT assay. Type of test: functional, cell-based.
For test [7], the system named is HepG2. The test is described as follows: Antiproliferative activity against human HepG2 cells by MTT assay. Type of test: functional, cell-based.
The next test relates to SK-HEP1. As to the kind of experiment: Antiproliferative activity against human SK-HEP1 cells assessed as cell growth inhibition by SRB method. Type of test: functional. (In SRB staining, fixed cells bind dye roughly in proportion to their protein.)
In test [8] the test system is HepG2. As to the kind of experiment: Antiproliferative activity against human HepG2 cells assessed as cell growth inhibition by SRB method. Type of test: functional.
Test [9] relates to HepG2. As to the kind of experiment: Antiproliferative activity against doxorubicin resistant human HepG2 cells for 24 hrs in presence of c-phycocyanin by MTT assay. As to conditions: HepG2, 24 h.
Test [10] deals with HepG2. As to the kind of experiment: Cytotoxicity against human HepG2 cells by SRB assay. It is filed as functional, cell-based.
Test [11] has as its system SMMC-7721. As to the kind of experiment: Cytotoxicity against human SMMC-7721 cells by SRB assay. It is filed as functional, cell-based.
The subject of a further test is PLC-PRF-5. The test is described as follows: Cytotoxicity against human PLC-PRF-5 cells by SRB assay. It is filed as functional, cell-based.
The test system of test [12] is HepG2. The test is described as follows: Anticancer activity against human HepG2 cells by MTT assay. It is filed as functional, cell-based.
A further test deals with Bel-7402. As to the kind of experiment: Growth inhibition of human Bel-7402 cells. Type of test: functional, cell-based.
Test [13] concerns SMMC-7721. As to the kind of experiment: Antiproliferative activity against human SMMC-7721 cells measured after 48 hrs. It is filed as functional, cell-based. The settings on record: SMMC-7721, 48 h.
For test [14], the system named is SMMC-7721. The test is described as follows: Antitumor activity against human SMMC-7721 cells xenografted in mouse assessed as reduction in tumor volume at 20 mg/kg administered once every two days for 21 days relative to control. As to conditions: time 21 day. Type of test: functional. On the set-up: scale not given: the % may be the effect or the level left. A general note: Xenograft models place foreign cells or tissue in a host animal.

Test [15] in a line: Cytotoxicity against human HepG3 cells measured after 3 days by MTT assay. As to conditions: HepG3, 72 h. Type of test: functional, cell-based.
Test [16] deals with Hep 3B2. As to the kind of experiment: Cytotoxicity against human Hep3B cells. Type of test: functional, cell-based.
Test [17] has as its system Huh-7. The test is described as follows: Cytotoxicity against human Huh-7 cells. It is filed as functional, cell-based.
For test [18], the system named is HepG2. As to the kind of experiment: Antiproliferative activity against human HepG2 cells incubated for 72 hrs by MTT assay. It is filed as functional, cell-based. The settings on record: HepG2, 72 h.

Compound `C=C(CC[C@@H](C)[C@H]1[C@@H](O)C[C@H]2[C@@H]3CC=C4C[C@@H](O)CC[C@]4(C)[C@H]3[C@H](O)C[C@]12C)C(C)C` had an IC50 with HepG2 [1] of 14.9 µM.
`CCCCC/C=C\CC1(O)C=C(Br)C(=O)/C1=C\C=C\CCCC(=O)OC` (centres undefined): the IC50 turned out to be 0.47 µM with Hep 3B2 [2], 0.59 µM with HepG2 [3] and 0.41 µM in the test on HA22T cell line.
For `COC1=CC(=O)c2c(O)c3c(c(O)c2C1=O)C[C@]1(C)OCO[C@@H]1C3`, the IC50 in the test on HepG2 [4] is 12.8 µM.
On to `C[C@]1(O)Cc2c(O)c3c(c(O)c2C[C@H]1O)C(=O)C=C(NCc1ccc(F)cc1)C3=O`, for which it took 11.2 µM to reach half-maximal inhibition in the test on HepG2 [4] (IC50).
Regarding `CNC(=O)c1cc(Oc2ccc(NC(=O)Nc3ccc(Cl)c(C(F)(F)F)c3)cc2)ccn1` [SORAFENIB], the IC50 in test [5] stood at 21.2 µM; in the test on Huh-7 [6], 4.25 µM; in the test with SNU-387 it was 259 µM; in the test on HepG2 [7], 6.4 µM.
As to `C/C=C\C[C@@H](C/C=C\NC(=O)[C@@H](NC(=O)\C=C/C=C\C(C)=C\[C@H](C)[C@@H]1CC=C(OC)C(=O)O1)C(C)(C)C)OC(N)=O` [PLOCABULIN], the GI50 is 0.000179 µM in the test with SK-HEP1 and 0.00276 µM in the test with HepG2 [8].
On to `COc1cccc2c1C(=O)c1c(O)c3c(c(O)c1C2=O)C[C@@](O)(C(=O)CO)C[C@@H]3O[C@H]1C[C@H](N)[C@H](O)[C@H](C)O1` [DOXORUBICIN], for which the IC50 in the test with HepG2 [9] came out at 10 µM; in the test on HepG2 [10], 0.919 µM; in the test on SMMC-7721 [11], 0.706 µM; in the test with PLC-PRF-5 it was 1.03 µM.
On to `C#CCNC1=CC(=O)c2c(O)c3c(c(O)c2C1=O)C[C@](C)(O)[C@H](O)C3`, for which the IC50 in the test with HepG2 [4] turned out to be 10.1 µM.
In the test on HepG2 [12], `CCCCCC1=C/C(=C\c2[nH]c(-c3ccc[nH]3)cc2OC)N=C1C` registered an IC50 of 0.04 µM.
As to `CC[C@]1(O)C[C@@H]2CN(CCc3c([nH]c4ccccc34)[C@@](C(=O)OC)(c3cc4c(cc3OC)N(C)[C@H]3[C@@](O)(C(=O)OC)[C@H](OC(C)=O)[C@]5(CC)C=CCN6CC[C@]43[C@@H]65)C2)C1` [VINBLASTINE], the GI50 in the test on SK-HEP1 was found to be 0.0378 µM.
The compound `CCC(C)SC1=C(SC)C(=O)c2c(O)c3c(c(O)c2C1=O)C[C@](C)(O)[C@H](O)C3` (some centres undefined) yielded an IC50 in the test on HepG2 [4] of 2.39 µM.
With `Oc1cc(Br)c(Cc2cc(O)c(O)cc2Br)cc1O`, in the test with Bel-7402, inhibition was half-maximal at 15.9 µM (IC50).
Regarding `C[C@@]12C[C@@H](O)C[C@]3(C)C4=CC(=O)OCC4=C[C@@H](OC1=O)C23` (some centres undefined), inhibition in the test on SMMC-7721 [13] was half-maximal at 19 µM (IC50). The Activity in the test with SMMC-7721 [14] is given as 86.4%.
In the test on HepG2 [4], `COc1cccc2c1C(=O)c1c(O)c3c(c(O)c1C2=O)C[C@@](O)(C(=O)CO)C[C@@H]3O[C@H]1C[C@H](N)[C@@H](O)[C@H](C)O1` [EPIRUBICIN] returned an IC50 of 0.96 µM.
As to `C=C(CC[C@@H](C)[C@H]1[C@@H](O)C[C@H]2[C@@H]3CC=C4C[C@@H](O[C@@H]5O[C@@H](C)[C@@H](OC(C)=O)[C@@H](O)[C@@H]5O)CC[C@]4(C)[C@H]3[C@H](O)C[C@]12C)C(C)C`, the IC50 was determined as 17.6 µM in the test on HepG2 [1] and 18.9 µM in test [15].
As for `COc1cc(O)c2c(c1O)C(=O)C1=C(C2=O)C(O)C(O)C(C)(O)C1` (centres undefined), the IC50 in the test on Hep 3B2 [16] turned out to be 3.2 µM; with Huh-7 [17], 9.6 µM.
For the compound `COc1ccc2[nH]c([C@@H]3C4C5CCC([C@H](C)CCCC(C)C)[C@@]5(C)CCC4[C@@]4(C)CC[C@H](O)C[C@@]34O)nc2c1` (some centres undefined), in the test on HepG2 [18], 8.4 µM corresponded to half-maximal inhibition (IC50).
